From patent US9376387B2 (priority 2013, dated 2016)

How the values were obtained:
[1] = biological target: T1, hAChE (human erythrocyte membranes as a AChE source) (Homo sapiens, UniProt P22303); assay: acetylcholinesterase (AChE) activity, modified Ellman method; assay type: biochemical; conditions: hAChE IC50, modified Ellman method, acetylthiocholine iodide substrate, pH=7.4
T1 construct: human erythrocyte membranes as a AChE source; from tissue; host or cells: human erythrocyte membranes

[2] = biological target: EqBuChE (Equus caballus, UniProt P81908); assay: biochemical; conditions: EqBuChE IC50
Chain of EqBuChE (P81908 whole entry): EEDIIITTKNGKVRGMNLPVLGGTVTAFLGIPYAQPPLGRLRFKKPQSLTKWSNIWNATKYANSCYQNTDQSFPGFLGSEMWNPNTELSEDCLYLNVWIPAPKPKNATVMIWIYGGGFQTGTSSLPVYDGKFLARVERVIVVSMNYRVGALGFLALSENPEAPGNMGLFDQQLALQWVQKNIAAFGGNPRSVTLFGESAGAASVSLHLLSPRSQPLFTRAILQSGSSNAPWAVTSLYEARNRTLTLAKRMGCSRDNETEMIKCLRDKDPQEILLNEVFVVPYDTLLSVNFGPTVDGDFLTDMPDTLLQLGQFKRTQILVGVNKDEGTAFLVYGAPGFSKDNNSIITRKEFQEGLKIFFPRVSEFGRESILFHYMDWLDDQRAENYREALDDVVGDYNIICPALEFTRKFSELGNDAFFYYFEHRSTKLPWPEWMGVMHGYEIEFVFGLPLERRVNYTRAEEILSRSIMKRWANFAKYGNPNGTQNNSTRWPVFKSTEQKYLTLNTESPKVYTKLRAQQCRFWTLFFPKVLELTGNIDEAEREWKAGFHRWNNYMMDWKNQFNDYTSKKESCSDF

T1 sequence (P22303 32-617 isoform P22303-2 limits assumed): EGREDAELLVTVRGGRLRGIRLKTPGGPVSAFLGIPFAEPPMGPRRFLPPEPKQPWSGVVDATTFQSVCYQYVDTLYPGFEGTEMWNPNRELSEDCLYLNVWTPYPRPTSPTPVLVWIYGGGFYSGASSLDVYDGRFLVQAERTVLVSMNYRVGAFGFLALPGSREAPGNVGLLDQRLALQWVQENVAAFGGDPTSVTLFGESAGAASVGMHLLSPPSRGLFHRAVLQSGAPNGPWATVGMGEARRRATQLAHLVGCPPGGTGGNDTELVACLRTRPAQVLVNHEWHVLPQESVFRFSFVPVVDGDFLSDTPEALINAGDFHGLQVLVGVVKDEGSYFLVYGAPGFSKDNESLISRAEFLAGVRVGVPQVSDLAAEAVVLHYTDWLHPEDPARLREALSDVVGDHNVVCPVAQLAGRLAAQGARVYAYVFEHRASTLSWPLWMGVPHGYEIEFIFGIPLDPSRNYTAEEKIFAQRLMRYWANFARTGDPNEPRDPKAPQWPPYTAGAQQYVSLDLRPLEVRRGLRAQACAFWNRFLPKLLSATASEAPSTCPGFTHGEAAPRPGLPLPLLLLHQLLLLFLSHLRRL

| SMILES | IC50 [1] [nM] | IC50 [2] [nM] |
| --- | --- | --- |
| COc1cc2c(cc1OC)C(=O)C(CC1C=CN(Cc3ccccc3)C=C1C(C)=O)CC2 (stereo not shown) [Compound 162, 2-[(3-acetyl-1-benzyl-4H-pyridin-4-yl)methyl]-6,7-dimethoxy-tetralin-1-one] | 415 | 3970 |
| COc1ccc2c(c1)CCC(Cc1cc[n+](Cc3ccccc3Cl)cc1C(C)=O)C2=O (stereo not shown) [Compound 126, 2-[[3-acetyl-1-[(2-chlorophenyl)methyl]pyridin-1-ium-4-yl]methyl]-6-methoxy-tetralin-1-one bromide] | 29 | 256 |
| COc1ccc2c(c1)CCC(Cc1cc[n+](Cc3ccc(Cl)cc3)cc1C(C)=O)C2=O (stereo not shown) [Compound 131, 2-[[3-acetyl-1-[(4-chlorophenyl)methyl]pyridin-1-ium-4-yl]methyl]-6-methoxy-tetralin-1-one bromide] | 568 | 6090 |
| COc1cc2c(cc1OC)C(=O)C(Cc1cc[n+](Cc3ccccc3Cl)cc1Br)C2 (stereo not shown) [Compound 140, 2-[[3-bromo-1-[(2-chlorophenyl)methyl]pyridin-1-ium-4-yl]methyl]-5,6-dimethoxy-indan-1-one bromide] | 0.255 | 984 |
| COc1ccc2c(c1)CCC(Cc1cc[n+](Cc3cccc(F)c3)cc1C(C)=O)C2=O (stereo not shown) [Compound 128, 2-[[3-acetyl-1-[(3-fluorophenyl)methyl]pyridin-1-ium-4-yl]methyl]-6-methoxy-tetralin-1-one bromide] | 55 | 412 |
| COc1ccc2c(c1)CCC(Cc1cc[n+](Cc3cccc(Cl)c3)cc1C(C)=O)C2=O (stereo not shown) [Compound 122, 2-[[3-acetyl-1-[(3-chlorophenyl)methyl]pyridin-1-ium-4-yl]methyl]-6-methoxy-tetralin-1-one bromide] | 71 | 496 |
| CC(=O)c1c[n+](Cc2ccccc2C)ccc1CC1Cc2cc3c(cc2C1=O)OCO3 (stereo not shown) [Compound 139, 6-[[3-acetyl-1-(o-tolylmethyl)pyridin-1-ium-4-yl]methyl]-5,6-dihydrocyclopenta[f][1,3]benzodioxol-7-one bromide] | 60 | 1620 |
| COc1ccc2c(c1)CCC(Cc1cc[n+](Cc3cccc(C)c3)cc1Br)C2=O (stereo not shown) [Compound 118, 2-[[3-bromo-1-(m-tolylmethyl)pyridin-1-ium-4-yl]methyl]-6-methoxy-tetralin-1-one bromide] | 16.5 | 664 |
| COc1ccc2c(c1)CCC(Cc1cc[n+](Cc3cccc([N+](=O)[O-])c3)cc1C(C)=O)C2=O (stereo not shown) [Compound 123, 2-[[3-acetyl-1-[(3-nitrophenyl)methyl]pyridin-1-ium-4-yl]methyl]-6-methoxy-tetralin-1-one bromide] | 78.6 | 1320 |
| COc1ccc2c(c1)CCC(Cc1cc[n+](Cc3ccccc3)cc1Br)C2=O (stereo not shown) [Compound 117, 2-[(1-benzyl-3-bromo-pyridin-1-ium-4-yl)methyl]-6-methoxy-tetralin-1-one bromide] | 20 | 447 |
| COc1ccc2c(c1)CCC(Cc1cc[n+](Cc3ccccc3F)cc1C(C)=O)C2=O (stereo not shown) [Compound 127, 2-[[3-acetyl-1-[(2-fluorophenyl)methyl]pyridin-1-ium-4-yl]methyl]-6-methoxy-tetralin-1-one bromide] | 43 | 489 |
